Experimental data as given in ChEMBL document CHEMBL3734679, “Discovery of Azaindole Ureas as a Novel Class of Bacterial Gyrase B Inhibitors” (J Med Chem, 2015).
Values after ≈ are worked out from the molar mass of the structure shown.

Columns and labels:
[1] = target: DNA gyrase subunit B (Staphylococcus aureus, UniProt P0A0K8); experiment: Inhibition of Staphylococcus aureus DNA GyraseB ATPase activity using linear pBR322 DNA as substrate incubated for 30 mins by fluorescence polarization analysis
Sequence of DNA gyrase subunit B (P0A0K8 whole entry): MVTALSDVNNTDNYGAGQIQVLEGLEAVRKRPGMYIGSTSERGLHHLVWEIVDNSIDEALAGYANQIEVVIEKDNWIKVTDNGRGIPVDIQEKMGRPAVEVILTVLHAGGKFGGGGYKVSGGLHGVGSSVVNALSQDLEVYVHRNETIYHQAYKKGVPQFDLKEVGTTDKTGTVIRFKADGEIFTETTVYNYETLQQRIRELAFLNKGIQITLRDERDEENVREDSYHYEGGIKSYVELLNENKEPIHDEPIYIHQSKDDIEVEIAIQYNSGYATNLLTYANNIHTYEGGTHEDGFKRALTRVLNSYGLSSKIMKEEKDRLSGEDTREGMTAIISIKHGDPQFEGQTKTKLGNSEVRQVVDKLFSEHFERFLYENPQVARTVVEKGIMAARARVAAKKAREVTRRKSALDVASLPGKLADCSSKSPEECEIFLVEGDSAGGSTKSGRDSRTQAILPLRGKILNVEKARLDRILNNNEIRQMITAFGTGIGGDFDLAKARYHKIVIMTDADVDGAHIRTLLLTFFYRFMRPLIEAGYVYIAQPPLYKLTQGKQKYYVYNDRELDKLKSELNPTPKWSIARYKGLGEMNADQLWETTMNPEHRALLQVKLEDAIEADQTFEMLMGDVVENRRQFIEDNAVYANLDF

[2] = test system: Staphylococcus aureus; experiment: Antibacterial activity against methicillin-susceptible Staphylococcus aureus 42 after 18 to 20 hrs by broth microdilution assay; assay type: functional
[3] = test system: Staphylococcus aureus; experiment: Antibacterial activity against ciprofloxacin-resistant Staphylococcus aureus 1721 after 18 to 20 hrs by broth microdilution assay; assay type: functional
[4] = test system: Staphylococcus aureus; experiment: Antibacterial activity against methicillin-resistant Staphylococcus aureus 1118 after 18 to 20 hrs by broth microdilution assay; assay type: functional
[5] = test system: Enterococcus faecalis; experiment: Antibacterial activity against Enterococcus faecalis after 18 to 20 hrs by broth microdilution assay; assay type: functional
[6] = test system: Enterococcus faecium; experiment: Antibacterial activity against Enterococcus faecium after 18 to 20 hrs by broth microdilution assay; assay type: functional
[7] = test system: Streptococcus pneumoniae; experiment: Antibacterial activity against Streptococcus pneumoniae after 18 to 20 hrs by broth microdilution assay; assay type: functional

CCNC(=O)Nc1c[nH]c2cc(-c3cccnc3)cnc12
IC50 [1]: 6500 nM | MIC [2]: > 32 µg/mL | MIC [3]: > 32 µg/mL | MIC [4]: > 32 µg/mL | MIC [5]: > 32 µg/mL | MIC [6]: > 32 µg/mL | MIC [7]: > 32 µg/mL

CCNC(=O)Nc1cn(-c2ncc(C)c(CCC(=O)O)n2)c2cc(-c3cccnc3)cnc12
IC50 [1]: 48 nM | MIC [2]: > 32 µg/mL | MIC [3]: > 32 µg/mL | MIC [4]: > 32 µg/mL | MIC [6]: > 32 µg/mL | MIC [7]: 1 µg/mL (≈ 2.24 µM)

CCNC(=O)Nc1cn(-c2ncc(Cl)cn2)c2cc(-c3cnc(C#N)nc3)cnc12
IC50 [1]: 25 nM | MIC [2]: > 32 µg/mL | MIC [3]: > 32 µg/mL | MIC [4]: > 32 µg/mL | MIC [5]: > 32 µg/mL | MIC [6]: > 32 µg/mL | MIC [7]: > 32 µg/mL

CCNC(=O)Nc1cn(C2CCCCC2)c2cc(-c3cccnc3)cnc12
IC50 [1]: 350 nM

CCNC(=O)Nc1cn(-c2ncccn2)c2cc(-c3cccnc3)cnc12
IC50 [1]: < 79 nM | MIC [2]: 8 µg/mL (≈ 22.3 µM) | MIC [3]: 16 µg/mL (≈ 44.5 µM) | MIC [4]: 8 µg/mL (≈ 22.3 µM) | MIC [5]: 2 µg/mL (≈ 5.56 µM) | MIC [6]: 8 µg/mL (≈ 22.3 µM) | MIC [7]: 4 µg/mL (≈ 11.1 µM)

CCNC(=O)Nc1cn(CCOC)c2cc(-c3cccnc3)cnc12
IC50 [1]: 2400 nM

CCNC(=O)Nc1cn(C2CCN(C)CC2)c2cc(-c3cccnc3)cnc12
IC50 [1]: 6420 nM

CCNC(=O)Nc1cn(-c2ncc(CC)cn2)c2cc(-c3ccn(C)c(=O)c3)cnc12
IC50 [1]: 71 nM | MIC [2]: 1 µg/mL (≈ 2.4 µM) | MIC [3]: 1 µg/mL (≈ 2.4 µM) | MIC [4]: 1 µg/mL (≈ 2.4 µM) | MIC [6]: 0.25 µg/mL (≈ 0.599 µM) | MIC [7]: 0.25 µg/mL (≈ 0.599 µM)

CCNC(=O)Nc1cn(-c2ncc(C)cn2)c2cc(-c3cccnc3)cnc12
IC50 [1]: 64 nM | MIC [2]: 4 µg/mL (≈ 10.7 µM) | MIC [3]: 4 µg/mL (≈ 10.7 µM) | MIC [4]: 4 µg/mL (≈ 10.7 µM) | MIC [5]: 1 µg/mL (≈ 2.68 µM) | MIC [6]: 4 µg/mL (≈ 10.7 µM) | MIC [7]: 4 µg/mL (≈ 10.7 µM)

CCNC(=O)Nc1cn(-c2ncc(Cl)cn2)c2cc(-c3cccnc3)cnc12
IC50 [1]: 92 nM | MIC [2]: 2 µg/mL (≈ 5.08 µM) | MIC [3]: 4 µg/mL (≈ 10.2 µM) | MIC [4]: 4 µg/mL (≈ 10.2 µM) | MIC [5]: 0.5 µg/mL (≈ 1.27 µM) | MIC [6]: 2 µg/mL (≈ 5.08 µM) | MIC [7]: 2 µg/mL (≈ 5.08 µM)

CCNC(=O)Nc1cn(-c2ncc(Br)cn2)c2cc(-c3ccn(C)c(=O)c3)cnc12
IC50 [1]: 94 nM | MIC [2]: 1 µg/mL (≈ 2.14 µM) | MIC [3]: 1 µg/mL (≈ 2.14 µM) | MIC [4]: 1 µg/mL (≈ 2.14 µM) | MIC [6]: 1 µg/mL (≈ 2.14 µM) | MIC [7]: 1 µg/mL (≈ 2.14 µM)

CCNC(=O)Nc1cn(-c2ncc(C)cn2)c2cc(-c3ccn(C)c(=O)c3)cnc12
IC50 [1]: 13 nM | MIC [2]: > 32 µg/mL | MIC [3]: > 32 µg/mL | MIC [4]: > 32 µg/mL | MIC [5]: 0.5 µg/mL (≈ 1.24 µM) | MIC [6]: > 32 µg/mL | MIC [7]: 4 µg/mL (≈ 9.91 µM)

CCNC(=O)Nc1cn(C(=O)c2ccccn2)c2cc(-c3cccnc3)cnc12
IC50 [1]: 1130 nM

CCNC(=O)Nc1cn(-c2ncc(Br)cn2)c2cc(-c3ccn(CCO)c(=O)c3)cnc12
IC50 [1]: 8 nM | MIC [2]: 8 µg/mL (≈ 16.1 µM) | MIC [3]: 8 µg/mL (≈ 16.1 µM) | MIC [4]: 8 µg/mL (≈ 16.1 µM) | MIC [6]: 8 µg/mL (≈ 16.1 µM) | MIC [7]: 8 µg/mL (≈ 16.1 µM)

CCNC(=O)Nc1cn(-c2ccccn2)c2cc(-c3cccnc3)cnc12
IC50 [1]: 140 nM | MIC [2]: 16 µg/mL (≈ 44.6 µM) | MIC [4]: 16 µg/mL (≈ 44.6 µM) | MIC [5]: 8 µg/mL (≈ 22.3 µM) | MIC [6]: 8 µg/mL (≈ 22.3 µM) | MIC [7]: 8 µg/mL (≈ 22.3 µM)

CCNC(=O)Nc1cn(-c2ncccn2)c2cc(-n3cnc(C(=O)NC4CC4)c3)cnc12
IC50 [1]: 10 nM | MIC [2]: 4 µg/mL (≈ 9.27 µM) | MIC [3]: 4 µg/mL (≈ 9.27 µM) | MIC [4]: 4 µg/mL (≈ 9.27 µM) | MIC [6]: 8 µg/mL (≈ 18.5 µM) | MIC [7]: 2 µg/mL (≈ 4.64 µM)

CCNC(=O)Nc1cn(-c2nccc(CCCO)n2)c2cc(-c3cccnc3)cnc12
IC50 [1]: 42 nM | MIC [2]: 32 µg/mL (≈ 76.7 µM) | MIC [3]: 32 µg/mL (≈ 76.7 µM) | MIC [4]: 32 µg/mL (≈ 76.7 µM) | MIC [5]: 0.5 µg/mL (≈ 1.2 µM) | MIC [6]: 4 µg/mL (≈ 9.58 µM) | MIC [7]: 4 µg/mL (≈ 9.58 µM)

CCNC(=O)Nc1cn(-c2ncc(CC)cn2)c2cc(-c3cccnc3)cnc12
IC50 [1]: 46 nM | MIC [2]: 16 µg/mL (≈ 41.3 µM) | MIC [3]: 16 µg/mL (≈ 41.3 µM) | MIC [4]: 16 µg/mL (≈ 41.3 µM) | MIC [5]: 8 µg/mL (≈ 20.6 µM) | MIC [6]: 16 µg/mL (≈ 41.3 µM) | MIC [7]: 16 µg/mL (≈ 41.3 µM)

CCNC(=O)Nc1cn(-c2ncc(F)cn2)c2cc(-c3cccnc3)cnc12
IC50 [1]: 127 nM | MIC [2]: 32 µg/mL (≈ 84.8 µM) | MIC [3]: > 32 µg/mL | MIC [4]: 32 µg/mL (≈ 84.8 µM) | MIC [5]: 32 µg/mL (≈ 84.8 µM) | MIC [6]: 32 µg/mL (≈ 84.8 µM) | MIC [7]: 32 µg/mL (≈ 84.8 µM)
